These results are taken from patent US7674789B2, “Compounds” (Glaxo Group Limited, priority 2005, dated 2010).

Structures can show the parent of a compound that is named as a salt.

The subject of this experiment is influx of neutrophils to the lung in LPS-challenged rats. Nature of the experiment: Rat LPS neutrophilia model. The following applies: intratracheal compound 15 min-24 hours before LPS aerosol (100 ug/ml, 15 min), lavage 4 hours later, in at least one of the range of conditions tested. The experiment is classed as in vivo. Here is the method: Rat LPS Neutrophilia Model
The effect of compounds on the influx of neutrophils to the lung in LPS-challenged rats is evaluated as follows. The test compound is suspended in one of the following solutions: 0.5% tween 80/PBS, 0.5% tween 80/saline, 10% EtOH/saline (with pH adjusted to 2.0, or 8.0 with HCl, or unadjusted), Saline @ pH 2.0, 6.5 or 8.0, 0.5% Tragacanth, 1% DMSO/20% Encapsin/Saline, or acidified 5% Tragacanth. The suspension process may be aided by the use of a glass homogenizer. For intratracheal administration, the animals are anesthetized with inhaled isoflurane and placed in a supine position, the trachea is intubated with a steel gavage needle (1.5 inch, 22 gauge, small ball) or a Penn-Century Microsprayer Aerosolizer (model IA-1B) and 200 ul of dosing solution is delivered. The animals are visually monitored during the recovery process, which typically occurs within two minutes.
Rats treated with compound or vehicle (15 min-24 hours pretreatment) are exposed to an LPS aerosol (100 ug/ml) for 15 min. Four hours later the rats are euthanized with pentobarbital (100 mg/kg, i.p.) and the airways are lavaged with 5 washes of 5 ml of phosphate buffered saline. The harvested cells are stained (Diffquick) and counted to determine total and differential cell data. In a typical study, macrophages represent 40-70% of the total cells, and polymorphonuclear cells 30-60% of the total cells. Inhibition of neutrophil levels relative to no compound controls is calculated based on the differential counts.
The assay has varying conditions, such as concentration, pretreat time, form of the compound (crystalline, amorphous, salts, micronised), and a wet or dry application of the compound. The data is obtained as % inhibition using a particular concentration and pretreat time.
Take `Cc1ccc(C(=O)Nc2nccs2)cc1-c1nc(N(C)CCCN(C)C)nc2c1CNC(=O)N2c1c(F)cccc1F` [Example 124, 3-{8-(2,6-difluorophenyl)-2-[[3-(dimethylamino)propyl](methyl)amino]-7-oxo-5,6,7,8-tetrahydropyrimido[4,5-d]pyrimidin-4-yl}-4-methyl-N-1,3-thiazol-2-ylbenzamide]: the “inhibition of neutrophilia (neutrophil influx to the lung)” value (shortened to “inhibition of neutrophilia”) is recorded as “statistically nonsignificant inhibition of neutrophilia”.

For the compound `Cc1ccc(C(=O)Nc2ccc(F)cc2)cc1-c1nc(N(C)CCN(C)C)nc2c1CNC(=O)N2c1c(F)cccc1F` [Example 32, 3-{8-(2,6-difluorophenyl)-2-[[2-(dimethylamino)ethyl](methyl)amino]-7-oxo-5,6,7,8-tetrahydropyrimido[4,5-d]pyrimidin-4-yl}-N-(4-fluorophenyl)-4-methylbenzamide], the “inhibition of neutrophilia” value was “statistically nonsignificant inhibition of neutrophilia”.

As for `CCc1ccc(C(=O)Nc2nccs2)cc1-c1nc(NCCN(C)C)nc2c1CNC(=O)N2c1c(F)cccc1F` [Example 144, 3-(8-(2,6-difluorophenyl)-2-{[2-(dimethylamino)ethyl]amino}-7-oxo-5,6,7,8-tetrahydropyrimido[4,5-d]pyrimidin-4-yl)-4-ethyl-N-1,3-thiazol-2-ylbenzamide trifluoroacetate], the “inhibition of neutrophilia” value is given as “statistically significant inhibition of neutrophilia”.

Take `Cc1ccc(C(=O)Nc2ccc(F)cc2)cc1-c1nc(N2CCC(N3CCCC3)CC2)nc2c1CNC(=O)N2c1c(F)cccc1F` [86(c), 3-{8-(2,6-difluorophenyl)-7-oxo-2-[4-(1-pyrrolidinyl)-1-piperidinyl]-5,6,7,8-tetrahydropyrimido[4,5-d]pyrimidin-4-yl}-N-(4-fluorophenyl)-4-methylbenzamide]: the “inhibition of neutrophilia” value is “statistically nonsignificant inhibition of neutrophilia”.

Consider `Cc1c(F)cc(C(=O)Nc2ccccc2)cc1-c1nc(NCCN(C)C)nc2c1CNC(=O)N2c1c(F)cccc1F` [Example 112, 3-(8-(2,6-difluorophenyl)-2-{[2-(dimethylamino)ethyl]amino}-7-oxo-5,6,7,8-tetrahydropyrimido[4,5-d]pyrimidin-4-yl)-5-fluoro-4-methyl-N-phenylbenzamide], for which the “inhibition of neutrophilia” value is “statistically significant inhibition of neutrophilia”.

Turning to `Cc1ccc(C(=O)Nc2ccc(C)c(-c3nc(N(C)C)nc4c3CNC(=O)N4c3c(F)cccc3F)c2)cc1F` [Example 28, N-{3-[8-(2,6-difluorophenyl)-2-(dimethylamino)-7-oxo-5,6,7,8-tetrahydropyrimido[4,5-d]pyrimidin-4-yl]-4-methylphenyl}-3-fluoro-4-methylbenzamide], the “inhibition of neutrophilia” value was “statistically nonsignificant inhibition of neutrophilia”.

With `COc1ccc(NC(=O)c2ccc(C)c(-c3nc(NCCN(C)C)nc4c3CNC(=O)N4c3c(F)cccc3F)c2)cn1` [Example 140, 3-(8-(2,6-difluorophenyl)-2-{[2-(dimethylamino)ethyl]amino}-7-oxo-5,6,7,8-tetrahydropyrimido[4,5-d]pyrimidin-4-yl)-4-methyl-N-[6-(methyloxy)-3-pyridinyl]benzamide], the “inhibition of neutrophilia” value is listed as “statistically significant inhibition of neutrophilia”.

As to `Cc1ccc(C(=O)Nc2ccc(F)cc2)cc1-c1nc(N(C)CCCN(C)C)nc2c1CNC(=O)N2c1c(F)cccc1F` [Example 9, 3-{8-(2,6-difluorophenyl)-2-[[3-(dimethylamino)-propyl](methyl)amino]-7-oxo-5,6,7,8-tetrahydropyrimido[4,5-d]pyrimidin-4-yl}-N-(4-fluorophenyl)-4-methylbenzamide], the “inhibition of neutrophilia” value is recorded as “statistically nonsignificant inhibition of neutrophilia”.

For `Cc1ccc(C(=O)Nc2ccccc2)cc1-c1nc(NCCN(C)C)nc2c1CNC(=O)N2c1c(F)cccc1F` [Example 137, 3-(8-(2,6-difluorophenyl)-2-{[2-(dimethylamino)ethyl]amino}-7-oxo-5,6,7,8-tetrahydropyrimido[4,5-d]pyrimidin-4-yl)-4-methyl-N-phenylbenzamide], the “inhibition of neutrophilia” value is reported as “statistically significant inhibition of neutrophilia”.

For `Cc1ccc(C(=O)NC(C)C)cc1-c1nc(N2CCC(N3CCC(C)CC3)CC2)nc2c1CNC(=O)N2c1c(F)cccc1F` [Example 70, 3-[8-(2,6-difluorophenyl)-2-(4-methyl-1,4′-bipiperidin-1′-yl)-7-oxo-5,6,7,8-tetrahydropyrimido[4,5-d]pyrimidin-4-yl]-4-methyl-N-(1-methylethyl)benzamide], the “inhibition of neutrophilia” value was “statistically significant inhibition of neutrophilia”.

`Cc1ccc(C(=O)NC(C)C)cc1-c1nc(N(C)CCN(C)C)nc2c1CNC(=O)N2c1c(F)cccc1F` [Example 36, 3-{8-(2,6-difluorophenyl)-2-[[2-(dimethylamino)ethyl](methyl)amino]-7-oxo-5,6,7,8-tetrahydropyrimido[4,5-d]pyrimidin-4-yl}-4-methyl-N-(1-methylethyl)benzamide]: the “inhibition of neutrophilia” value is given as “statistically significant inhibition of neutrophilia”.

Consider `CN(C)CCNc1nc(-c2cccc(C(=O)Nc3nccs3)c2)c2c(n1)N(c1c(F)cccc1F)C(=O)NC2` [Example 92, 3-(8-(2,6-difluorophenyl)-2-{[2-(dimethylamino)ethyl]amino}-7-oxo-5,6,7,8-tetrahydropyrimido[4,5-d]pyrimidin-4-yl)-N-1,3-thiazol-2-ylbenzamide], for which the “inhibition of neutrophilia” value is listed as “statistically significant inhibition of neutrophilia”.

As for `Cc1ccc(C(=O)Nc2ccc(F)cc2)cc1-c1nc(NCCCN(C)C)nc2c1CNC(=O)N2c1c(F)cccc1F` [Example 42, 3-(8-(2,6-difluorophenyl)-2-{[3-(dimethylamino)propyl]amino}-7-oxo-5,6,7,8-tetrahydropyrimido[4,5-d]pyrimidin-4-yl)-N-(4-fluorophenyl)-4-methylbenzamide], the “inhibition of neutrophilia” value was “statistically significant inhibition of neutrophilia”.

As to `CCN(CC)CCCNc1nc(-c2cc(C(=O)Nc3nccs3)ccc2C)c2c(n1)N(c1c(F)cccc1F)C(=O)NC2` [Example 120, 3-[2-{[3-(diethylamino)propyl]amino}-8-(2,6-difluorophenyl)-7-oxo-5,6,7,8-tetrahydropyrimido[4,5-d]pyrimidin-4-yl]-4-methyl-N-1,3-thiazol-2-ylbenzamide], the “inhibition of neutrophilia” value is reported as “statistically significant inhibition of neutrophilia”.

On to `Cc1ccc(NC(=O)c2ccsc2)cc1-c1nc(N2CCC(N)CC2)nc2c1CNC(=O)N2c1c(F)cccc1F` [Example 11, N-{3-[2-(4-amino-1-piperidinyl)-8-(2,6-difluorophenyl)-7-oxo-5,6,7,8-tetrahydropyrimido[4,5-d]pyrimidin-4-yl]-4-methylphenyl}-3-thiophenecarboxamide], for which the “inhibition of neutrophilia” value is “statistically significant inhibition of neutrophilia”.

`CNC(=O)c1ccc(C)c(-c2nc(N(C)CCCN(C)C)nc3c2CNC(=O)N3c2c(F)cccc2F)c1` [Example 174, 3-{8-(2,6-difluorophenyl)-2-[[3-(dimethylamino)propyl](methyl)amino]-7-oxo-5,6,7,8-tetrahydropyrimido[4,5-d]pyrimidin-4-yl}-N,4-dimethylbenzamide]: the “inhibition of neutrophilia” value was “inactive”.
